Test results: patent US20130137102A1, “Methods and kits for modulating tumor invasiveness and metastatic potential” (TUFTS MEDICAL CENTER, INC., priority 2010, published 2013)
Where a SMILES comes first, the peptide text is derived from it. [ ]: non-standard residue; d: D form. Nle = CCCC[C@H](N)C(=O)O

What was measured:
Tiam1 = experiment: In vitro Tiam1 cleavage assay; type: biochemical, human; settings: immunoblot
Procedure: HEK293T cells were transiently transfected with full-length Tiam1 cDNA as previously described (Buchsbaum et al., 2002). Forty-eight hours after transfection, cells were washed once with PBS and lysed in SP buffer as described above. Lysates were cleared of unbroken cells and debris by centrifugation at 10,000×g for 10 minutes. Aliquots of cleared lysates were reserved for immunoblots; the remainder were incubated with protein A-Sepharose beads (Pharmacia) and anti-Tiam1 antibody (diluted according to the manufacturer's instructions) or equal amounts of polyclonal rabbit IgG (Santa Cruz) for 2 h at 4° C. with constant agitation. Immunoprecipitates were washed twice with ice-cold SP buffer and once with Reaction Buffer (20 mM Tris-HCl, pH 7.5, 10 mM DTT, 6 mM CaCl2) in the presence of protease inhibitors (1 mM PMSF and 1.7 μg/ml aprotinin) prior to the cleavage reaction.
Pre-senescent cells were maintained in culture as described above. Senescence was induced with 800 uM H2O2 as described above, and confirmed by SA-β gal staining. Pre-senescent and senescent RMFs were washed with cold PBS, pelleted, and resuspended in extraction buffer (10 mM HEPES pH 7.0, 2 mM MgCl2, 50 mM NaCl, 1 mM DTT) containing inhibitors (17 μg/ml aprotinin, 10 μg/ml leupepsin, 100 μM NaV, 3.3 mM PMSF). Cells were lysed by freeze-thaw cycles in ethanol-liquid nitrogen/37° C. water bath. Extracts were centrifuged at 10,000 g for 15 min at 4° C., and resulting supernatants were used as the cytosolic fraction. Protein concentration was determined by BCA protein assay (Bio-Rad).
Immunoprecipitated proteins were incubated with extracted lysates from pre-senescent or senescent cells in Reaction Buffer for 2 hours at 37° C. with constant agitation. […] Samples were resolved by SDS-PAGE and immunoblotting as described.

RMF cells = experiment: Senescence induction and SA-β-Gal staining; type: cell-based, human; settings: repeated 3-5 days later, seven days after induction
Procedure: After treatment, cells were rinsed twice with phosphate-buffered saline (PBS) and left to recover in culture medium. […] For each treatment, senescence induction was repeated 3-5 days later to prevent recovery and cell cycle re-entry. Cells were sub-cultured for at least 7 days and senescence induction was confirmed by SA-β-gal staining.
SA-β-Gal staining was conducted as described previously [Dimri, G P, et al., 1995, Proc Natl Acad Sci USA 92:9363-7]. Briefly, cells were washed twice in PBS and fixed 5 minutes in 2% formaldehyde/0.2% glutaraldehyde, washed again, and incubated at 37° C. overnight with fresh senescence-associated β-Gal (SA-β-Gal) stain solution: 1 mg 5-bromo-4-chloro-3-indolyl-β-D-galactoside (X-Gal) per ml (stock=20 mg in dimethylformamide per ml)/40 mM citric acid/sodium phosphate, pH 6.0/5 mM potassium ferrocyanide/5 mM potassium ferricyanide/150 mM NaCl/2 mM MgCl2. Cells with positive staining were observed and counted under a light microscope (Nikon, Eclipse TS100).

HMECs = experiment: Spheroid co-culture in Matrigel with senescent RMFs; type: cell-based, human; settings: RMFs exposed to the agent before co-culture; preliminary examples
Procedure: (§1) As described previously [Xu K, et al., 2010, Oncogene 29:6533-42], Matrigel (BD Biosciences) was diluted in 1:1 ratio with ice-cold HMEC medium, and 50 μl of the mixture was placed mid-well in a 24-well plate. After incubating for 5 min in 37° C., an additional 250 μl of Matrigel:medium mixture was added into the well and incubated for another 30 min. A 1:1 mixture of HMEC and RMF cells (0.5×10^5 cells each) in 0.5 ml of HMEC medium was gently dropped onto the top of the solidified gel. Cells were cultured for two weeks and medium was changed every two or three days. Spheroid formation and projection growth were monitored daily under light microscopy. Images were obtained on a Diaphot Software Version 4.1 (Diagnostic Instruments Inc).
as §1, with “and 50 ul of the” for “and 50 μl of the”, “another 30 min A 1:1” for “another 30 min. A 1:1”, “light microscopy. […]” for “light microscopy. Images were obtained on a Diaphot Software Version 4.1 (Diagnostic Instruments Inc).”

[1] = system: T-cell lymphoma invasion and metastasis-inducing protein 1 (Tiam1)
T-cell lymphoma invasion and metastasis-inducing protein 1 (Tiam1), sequence (chain, as listed by the source): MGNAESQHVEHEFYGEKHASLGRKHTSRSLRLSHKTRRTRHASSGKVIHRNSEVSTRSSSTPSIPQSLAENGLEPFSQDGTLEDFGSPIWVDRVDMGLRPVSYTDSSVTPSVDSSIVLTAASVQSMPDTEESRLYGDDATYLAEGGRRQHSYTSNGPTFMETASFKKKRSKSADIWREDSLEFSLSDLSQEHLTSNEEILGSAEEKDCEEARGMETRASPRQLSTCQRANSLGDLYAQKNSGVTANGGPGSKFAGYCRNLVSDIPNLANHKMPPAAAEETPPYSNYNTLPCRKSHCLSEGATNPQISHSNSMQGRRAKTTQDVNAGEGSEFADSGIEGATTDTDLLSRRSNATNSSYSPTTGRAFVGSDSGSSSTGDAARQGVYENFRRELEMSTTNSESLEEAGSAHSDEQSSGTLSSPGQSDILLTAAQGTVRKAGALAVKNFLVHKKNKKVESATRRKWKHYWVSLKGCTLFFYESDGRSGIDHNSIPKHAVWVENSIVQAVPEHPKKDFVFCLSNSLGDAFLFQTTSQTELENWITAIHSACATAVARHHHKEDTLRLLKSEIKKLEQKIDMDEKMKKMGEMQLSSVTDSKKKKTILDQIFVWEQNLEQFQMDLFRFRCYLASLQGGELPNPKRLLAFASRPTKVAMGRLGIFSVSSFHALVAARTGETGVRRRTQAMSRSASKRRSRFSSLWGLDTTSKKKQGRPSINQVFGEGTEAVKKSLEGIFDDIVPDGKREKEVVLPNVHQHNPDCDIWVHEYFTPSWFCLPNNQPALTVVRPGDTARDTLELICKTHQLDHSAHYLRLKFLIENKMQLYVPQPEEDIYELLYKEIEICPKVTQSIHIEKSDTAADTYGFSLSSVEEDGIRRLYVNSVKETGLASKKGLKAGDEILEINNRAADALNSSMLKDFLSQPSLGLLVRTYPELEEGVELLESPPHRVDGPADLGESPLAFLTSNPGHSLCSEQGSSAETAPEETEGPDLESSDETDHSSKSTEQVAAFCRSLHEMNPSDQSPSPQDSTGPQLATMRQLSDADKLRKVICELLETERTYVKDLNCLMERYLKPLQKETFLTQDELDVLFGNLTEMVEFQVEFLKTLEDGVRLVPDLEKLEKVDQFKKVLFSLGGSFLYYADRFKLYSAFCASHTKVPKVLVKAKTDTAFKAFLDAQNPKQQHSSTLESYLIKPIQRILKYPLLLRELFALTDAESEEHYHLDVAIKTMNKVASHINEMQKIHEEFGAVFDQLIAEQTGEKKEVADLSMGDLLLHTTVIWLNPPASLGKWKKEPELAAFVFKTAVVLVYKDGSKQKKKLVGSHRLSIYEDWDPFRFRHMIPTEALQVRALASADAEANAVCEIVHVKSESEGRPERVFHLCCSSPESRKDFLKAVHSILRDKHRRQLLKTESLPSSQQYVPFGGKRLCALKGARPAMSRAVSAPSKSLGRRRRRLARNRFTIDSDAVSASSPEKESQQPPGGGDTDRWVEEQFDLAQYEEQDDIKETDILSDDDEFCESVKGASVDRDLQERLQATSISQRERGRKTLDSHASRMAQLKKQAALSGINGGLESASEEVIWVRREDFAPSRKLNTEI

## CCCC[C@@H](C=O)NC(=O)[C@H](CC(C)C)NC(=O)[C@H](CC(C)C)NC(C)=O [ALLN] (Ac-Leu-Leu-[Nle]-aldehyde)
Tiam1; lysates pre-incubated on ice 30 minutes with 50 μM ALLN
  degradation of immobilized Tiam1 induced by senescent lysates: significantly inhibited degradation of the immobilized Tiam1

## O=C(O)CN(CCN(CC(=O)O)CC(=O)O)CC(=O)O [EDTA]
Tiam1; lysates pre-incubated on ice 30 minutes with 1 mM EDTA
  degradation of immobilized Tiam1 induced by senescent lysates: significantly inhibited degradation of the immobilized Tiam1

## OO [H2O2, hydrogen peroxide]
RMF cells; 800 μmol/L H2O2 for 2 hours
  induction of senescence (morphology, SA β-gal staining): had taken on a morphologic appearance characteristic of senescence
HMECs
  HMEC invasiveness into matrix on co-culture with RMFs rendered senescent by the agent: increased invasiveness into the surrounding matrix

## CC(C)C[C@H](NC(=O)[C@H](Cc1ccccc1)NC(=O)c1cnccn1)B(O)O [bortezomib]
Tiam1; lysates pre-incubated with 5 nM bortezomib at 37° C. for 24 hours
  degradation of immobilized Tiam1 by senescent lysates: did not prevent degradation of immobilized Tiam1

## bleomycin
RMF cells; 50 μg/ml bleomycin for 24 hours
  induction of senescence (morphology, SA β-gal staining): had taken on a morphologic appearance characteristic of senescence
HMECs
  HMEC invasiveness into matrix on co-culture with RMFs rendered senescent by the agent: increased invasiveness into the surrounding matrix

## calpain proteases
[1]
  degradation of immunoprecipitated Tiam1 (in vitro Tiam1 cleavage assay, immunoblot): Pre-incubation of cell lysates with either the calpain inhibitor ALLN or the calcium-chelator EDTA significantly inhibited degradation of the immobilized Tiam1 induced by senescent lysates
